Test results published in the NIST ThermoML archive (doi:10.1016/j.fluid.2014.10.015).

Assay: molar heat capacity at constant pressure
Settings: 101.33 kPa, Liquid, Small sample (50 mg) DSC

CC(=O)[O-].CCCCn1cc[n+](C)c1 [1-butyl-3-methylimidazolium acetate]
Settings | molar heat capacity at constant pressure [J/K/mol]
253.15 K | 359.54
258.15 K | 361.57
263.15 K | 363.69
268.15 K | 365.9
273.15 K | 368.21
278.15 K | 370.61
283.15 K | 373.1
293.15 K | 378.36
298.15 K | 381.12
303.15 K | 383.98
313.15 K | 389.98
323.15 K | 396.35
333.15 K | 403.09
343.15 K | 410.2
353.15 K | 417.68
363.15 K | 425.53
373.15 K | 433.75
383.15 K | 442.34
393.15 K | 451.3
403.15 K | 460.63
413.15 K | 470.33
